Results reported in patent US20140378541A1, “Synthetic Epigallocatechin Gallate (EGCG) Analogs” (WAYNE STATE UNIVERSITY, priority 2011, published 2014).
Residue numbers refer to the chain shown, from its start. Where two headings read alike, the source gives them in different places. Values belong to the compound of their own block, whether it stands above or below them.

How the values were obtained:
[1] = test system: AMPK signaling; assay: AMPK activation, Western blot, MDA-MB-231 cells; format: cell-based, human; conditions: 20 μM, 3 h; metformin 10 mM as comparison
Method: In FIG. 9A, human breast cancer MDA-MB-231 cells were treated with 20 μM of EGCG, Pro-EGCG and EGCG analogs (compounds 5, 7, 23, 30 and 31), or 10 mM of metformin for 3 hrs. Cell lysates were analyzed by Western blot using antibodies of anti-AMPK, p-AMPK, PARP, p-EGFR, EGFR or β-actin. In FIG. 9B, human breast cancer MDA-MB-231 cells were treated with 20 μM of EGCG analogs 23 and 30, 10 nM of docetaxel alone, or combined treatment with compounds 23 and 30 plus docetaxel for 24 hrs. Cell lysates were analyzed by Western blot using antibodies of anti-AMPK, p-AMPK, PARP, p-EGFR, EGFR or β-actin. In FIG. 9C, cells were incubated in medium (0.1% BSA without FBS) containing 20 μM of 23, 30, 2.5 μM of Erlotinib (Eb) alone or the combinations as indicated for 24 hrs. Cell lyses were analyzed by Western blot using antibodies of anti-AMPK, p-AMPK, PARP, p-EGFR, EGFR or β-actin.
(§1) (A) EGCG analogs 23 and 30 inhibited breast cancer cell proliferation. MDA-MB-231 cells were treated with indicated concentrations of 23, 30 or metformin for 24 h, followed by a MTT assay. *, P<0.1; **, P<0.01. Columns, mean of three experiments; bars, SD. (B) EGCG analogs 23 and 30 activated AMPK at a dose-dependent manner, measured by elevated level of phosphor-AMPKα and its downstream proteins of phosphor-Raptor. […] MDA-MB-231 cells were treated with indicated concentrations of 23 or 30 for 3 h, followed by Western blot analysis with the indicated antibodies. The numbers underneath the Western results of p-AMPKα indicated normalized phosphor-AMPKα/β-actin ratios. […]
A whole cell extract was prepared from the treated cells as described by Landis-Piwowar et al. Cancer Res. (2007) 67, 4303, Chen et al. Cancer Res. (2007) 67, 1636, and Chen et al. Biochem. Pharm. (2005) 69, 1421. Cell extracts (30 μg) were separated by an SDS-PAGE gel and transferred to nitrocellulose membranes. The membrances were blotted by specific antibodies including anti-AMPK, p-AMPK, EGFR, p-EGFR (Cell Signaling Tech., Danvers, Mass.), PARP (Enzo Life Sciences, Plymouth Meeting, Pa.), actin (Santa Cruz Biotechnology, Santa Cruz, Calif.). The membranes were visualized by enhanced chemiluminescence, as described previously by Landis-Piwowar et al. Cancer Res. (2007) 67, 4303, Chen et al. Cancer Res. (2007) 67, 1636, and Chen et al. Biochem. Pharm. (2005) 69, 1421.
The Western blot analysis was performed as follows: A whole cell extract was prepared from the treated cells as described previously (Landis-Piwowar et al., Cancer research, 2007, 67: 4303-4310; Chen et al., Cancer research, 2007, 67: 1636-1644; Chen et al., Biochemical pharmacology, 2005, 69: 1421-1432). The cell extracts (30 μg) were then separated by an SDS-PAGE gel and transferred to nitrocellulose membranes. The membrances were blotted by specific antibodies including anti-AMPK, p-AMPK, EGFR, p-EGFR (Cell Signaling Tech. Danvers, Mass.), PARP (Enzo Life Sciences, Plymouth Meeting, Pa.), actin (Santa Cruz Biotechnology, Santa Cruz, Calif.). The membranes were visualized by enhanced chemiluminescence, as described previously (Landis-Piwowar et al., Cancer research, 2007, 67: 4303-4310; Chen et al., Cancer research, 2007, 67: 1636-1644; Chen et al., Biochemical pharmacology, 2005, 69: 1421-1432).
In FIG. 9A, human breast cancer MDA-MB-231 cells were treated with 20 μM of EGCG, Pro-EGCG and other EGCG analogs (compounds 5, 7, 23, 30 and 31), or 10 mM of metformin for 3 hrs. Cell lysates were analyzed by Western blot using antibodies of anti-AMPK, p-AMPK, PARP, p-EGFR, EGFR or β-actin. In FIG. 9B, human breast cancer MDA-MB-231 cells were treated with 20 μM of EGCG analogs 23 and 30, 10 nM of docetaxel alone, or combined treatment with compounds 23 and 30 plus docetaxel for 24 hrs.

[2] = target: T1, purified rabbit 20S proteasome (Oryctolagus cuniculus, UniProt G1T4Q9); assay: Inhibition of chymotrypsin-like activity of purified 20S proteasome; format: biochemical; conditions: for proteasomal inhibition (in words): purified 20S proteasome, concentration not stated; for inhibition of proteasomal chymotryptic activity (in words): even at a concentration of 50 μM
T1 sequence (G1T4Q9 60-263): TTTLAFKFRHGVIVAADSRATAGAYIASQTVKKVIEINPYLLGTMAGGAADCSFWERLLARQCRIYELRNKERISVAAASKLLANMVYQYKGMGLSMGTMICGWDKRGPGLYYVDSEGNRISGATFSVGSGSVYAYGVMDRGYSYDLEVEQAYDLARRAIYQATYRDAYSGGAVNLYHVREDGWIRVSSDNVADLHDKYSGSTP
Method: Purified 20S proteasome was incubated with compound 5, 7, 16, or 21 (A) or MDA-MB-231 cell extract (5.7 μg) was incubated with compound 6, 8, 17, or 22 (B) at indicated concentrations for 2 hours, followed by measuring the proteasomal chymotrypsin-like activity. EGCG was used as a comparative standard.
Purified rabbit 20S proteasome and fluorogenic substrate Suc-LLVY-AMC for the proteasomal chymotrypsin like (CT-like) activity were obtained from Calbiochem Inc. (San Diego, Calif.). Fetal bovine serum (FBS) was from Tissue Culture Biologicals (Tulare, Calif.). Penicillin and streptomycin were purchased from Invitrogen Co. (Carlsbad, Calif.). RPMI 1640 medium was purchased from Invitrogen Co. (Carlsbad, Calif.). MTT (3-4,5-dimethylthiazol-2-yl-2.5-diphenyl-tetrazolium bromide) was purchased from Sigma-Aldrich.
A purified rabbit 20S proteasome (35 ng) was incubated with 20 μM of substrate Suc-LLVY-AMC in 100 μl assay buffer (20 mM Tris-HCl, pH 7.5), in the presence of EGCG or EGCG analogs at different concentrations or the solvent for 2 h at 37° C., followed by measurement of hydrolysis of the fluorogenic substrates using a Wallac Victor3™ multi-label counter with 355-nm excitation and 460-nm emission wavelengths.

[3] = test system: Human breast cancer MDA-MB-231 cells; assay: MTT cell proliferation assay in MDA-MB-231 cells; format: cell-based; conditions: 24 h; for inhibition at 50 µM: Homo sapiens, MDA-MB-231
Method: Human breast cancer MDA-MB-231 cells were treated with 25 or 50 μM EGCG analogs for 24 hours, followed by MTT assay. Pro-EGCG was used as a comparison.
Human breast cancer MDA-MB-231 cells with high COMT activity were treated with 50 μM EGCG analogs for 24 hours in the absence or presence of 10 μM DNC, followed by MTT assay. Pro-EGCG was used as a comparison.
as §1
(§2) Cells were grown in a 96-well plate. Triplicate wells of cells were treated with indicated concentrations of EGCG or EGCG analogs for 24 h. After aspiration of medium, MTT (1 mg/ml) was then added to the cell cultures, followed by incubation for 3 h at 37° C. After cells were crystallized, MTT was removed and DMSO was added to dissolve the metabolized MTT product. The absorbance was then measured on a Wallac Victor3 1420 Multi-label counter at 540 nm.

[4] = target: T2, proteasomal chymotrypsin-like activity of MDA-MB-231 cell extracts (Homo sapiens, UniProt P28074); assay: Proteasomal chymotrypsin-like activity in MDA-MB-231 cell lysate with high COMT activity; format: biochemical; conditions: concentrations ranging between 1-10 μM, 2 h
T2 construct: endogenous in cells; host or cells: MDA-MB-231 human breast cancer cells (ATCC), cell extract
T2 sequence (P28074 60-263): T1 sequence (G1T4Q9 60-263) with D197E
Method: (A) MDA-MB-231 cell extracts (5.7 μg) were incubated with different concentrations of compound 5 or 7 or EGCG for 2 hours, followed by performance of proteasomal chymotrypsin-like activity assay. EGCG was used as a control. (B) MDA-MB-231 cell extracts (5.7 μg) were pre-treated with 10 μM DNC for 20 minutes, followed by co-incubation with compound 5, or 7 or EGCG for 2 h. The proteasomal chymotrypsin-like activity was measured.
Human breast cancer MDA-MB-231 cell lysate that contains high COMT activity were treated with varying concentrations of compound 5 or 7. […] Thus, consistent with previous reports EGCG is also susceptible to methylation by COMT (H., Lu, X. Meng, C. S. Yang, Drug Metabolism and Disposition; 31; 572, 2003).

[5] = test system: human multiple myeloma ARP cells; assay: MTT assay in multiple myeloma ARP cells, alone or with Velcade; format: cell-based; conditions: 48 h; for effect on cell proliferation when combined with Velcade: 20 μM plus varying doses of Velcade
Method: The cells were treated with Velcade™ alone or with 20 μM of compounds 5, 7 and 23 or in combination with varying doses of Velcade™ for 48 hrs, followed by a MTT assay.
Human multiple myeloma cells (Arp and Opm1) cells, kindly provided by Dr. Ramesh Batchu (Wayne State University), were grown in RPMI-1640 medium supplemented with 10% FBS, 100 units/ml of penicillin, and 100 μg/ml of streptomycin. Cells were maintained at 37° C. in 5% CO2 (Mujtaba T, et al., Int J Mol Med. (2012) 29(1):102-6).
as §2

[6] = test system: human multiple myeloma OPM1 cells; assay: MTT assay in multiple myeloma OPM1 cells, alone or with Velcade; format: cell-based; conditions: 48 h
[7] = test system: MDA-MB-231 cells; assay: Mammosphere formation assay; format: cell-based; conditions: Homo sapiens, MDA-MB-231, 168 h, 7 days
Method: MDA-MB-231 cells were seeded in low attached 6-well plates (1000 cells/well) and treated with indicated concentrations of 23 and 30 for 7 days, followed by calculating numbers of mammosphere (A) and taking photos of mammosphere morphology (B). Metformin and EGCG were served as control. *, P<0.1; **, P<0.01. Columns, mean of three experiments; bars, SD.
Mammosphere formation assay was performed to assess the capacity of cancer stem cell self-renewal. Single cell suspensions of MDA-MB-231 cells were thoroughly suspended and plated on ultra low adherent wells of 6-well plates (Corning, Lowell, Mass.) at 1000 cells/well in 1.5 ml of sphere formation medium (1:1 DMEM/F12 medium supplemented with 50 units/ml penicillin, […] streptomycin, B-27 and N-2). One milliliter of sphere formation medium was added every 3-4 days. After 7 days of incubation with different concentrations of EGCG analogs 23, 30 or metformin, the formed spheres were collected by centrifugation at 300 g for 5 min and counted with an inverted phase-contrast Zeiss Axiovert 25 microscope.

proteasomal inhibition (in words) [2]: none
SMILES: CC(=O)Oc1cc(OC(C)=O)c2c(c1)O[C@H](c1cc(OC(C)=O)c(OC(C)=O)c(OC(C)=O)c1)[C@H](OC(=O)c1cc(OC(C)=O)c(OC(C)=O)c(OC(C)=O)c1)C2 [Compound 4, (−)-Epigallocatechin gallate octa-acetate]
AMPK activation (p-AMPK) [1]: can activate AMPK signaling
inhibition in MDA-MB-231 cells growth ([3]; 25 to 50 μM, MTT): 0 to 32%
inhibition at 50 µM ([3]; absence of DNC, read-out: inhibition of cell proliferation, compound alone): 42%
inhibition at 50 µM ([3]; plus 10 μM DNC (COMT inhibitor), read-out: inhibition of cell proliferation in the presence of DNC): 89%

inhibition of proteasomal activity [4]: 10-16%
SMILES: O=C(O[C@H]1Cc2ccccc2C[C@H]1OC(=O)c1cc(O)c(O)c(O)c1)c1cc(O)c(O)c(O)c1 [Compound 5]
effect on cell proliferation when combined with Velcade [5]: antagonized the inhibitory effect

inhibition of proteasomal activity [4]: 18-51%
SMILES: O=C(O[C@H]1Cc2ccccc2C[C@H]1OC(=O)c1cc(O)cc(O)c1)c1cc(O)cc(O)c1 [Compound 7]
effect on cell proliferation when combined with Velcade [5]: synergistic inhibitory effect
inhibition at 20 µM ([5]; Homo sapiens, ARP cells, 20 μM, read-out: inhibition of cell proliferation): ~60%

inhibition of proteasomal chymotryptic activity (in words) [2]: did not inhibit
SMILES: O=C(O[C@H]1Cc2ccccc2C[C@H]1O)c1cc(O)c(O)c(O)c1 [Compound 16]

proteasomal inhibition (in words) [2]: none
SMILES: CC(=O)Oc1cc(C(=O)O[C@H]2Cc3ccccc3C[C@H]2OC(C)=O)cc(OC(C)=O)c1OC(C)=O [Compound 17]

inhibition of proteasomal chymotryptic activity (in words) [2]: not active
SMILES: O=C(O[C@H]1Cc2ccccc2C[C@H]1O)c1cc(O)cc(O)c1 [Compound 21]

proteasomal inhibition (in words) [2]: none
SMILES: CC(=O)Oc1cc(OC(C)=O)cc(C(=O)O[C@H]2Cc3ccccc3C[C@H]2OC(C)=O)c1 [Compound 22]

melting point: 102 to 104 °C
SMILES: O=C(O[C@H]1Cc2ccccc2C[C@H]1OC(=O)c1ccc(F)c(F)c1)c1ccc(F)c(F)c1 [Compound 33]

melting point: 136 to 138 °C
SMILES: O=C(O[C@H]1Cc2ccccc2C[C@H]1OC(=O)c1cc(F)cc(F)c1)c1cc(F)cc(F)c1 [Compound 34]

SMILES: CC(C)C[C@H](NC(=O)[C@H](Cc1ccccc1)NC(=O)c1cnccn1)B(O)O [Velcade™, bortezomib, reference compound]
cell proliferation, Velcade alone ([5]; varying doses): reduced cell proliferation in a dose-dependent manner
sensitivity of OPM1 cell line to treatment, versus ARP cells [6]: more resistant

SMILES: CN(C)C(=N)N=C(N)N [metformin, reference compound]
inhibition at 5000 µM ([7]; 5 mM): 41.4%
inhibition at 10000 µM ([7]; 10 mM): 67.6%
